Tested on: 616215-338-R-J1-PDC tumor spheroids, viability
Experiment: Anticancer human tumor 616215-338-R-J1-PDC patient-derived colon adenocarcinoma cell line growth inhibition [GQUAD]
Conditions: spheroids with HUVEC and MSC; for IC50: curve of first compound; for viability, T/C: stronger effect = lower value
Procedure, shortened: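 Multi-cell-type spheroids of tumor cells with HUVEC and mesenchymal stem cells, treated with drug combinations. Concentrations descend in half-log steps from near clinical Cmax, or from 10 microM where Cmax is unknown; viability read-out.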

[1] = second compound 0.0316 µM, first compound 0.0316 µM
[2] = second compound 0.0316 µM, first compound 0.316 µM
[3] = second compound 0.1 µM, first compound 0.0316 µM
[4] = second compound 0.1 µM, first compound 0.316 µM
[5] = second compound 0.316 µM, first compound 0.0316 µM
[6] = second compound 0.316 µM, first compound 0.316 µM
[7] = second compound 1 µM, first compound 0.0316 µM
[8] = second compound 1 µM, first compound 0.316 µM
[9] = second compound 3.16 µM, first compound 0.0316 µM
[10] = second compound 3.16 µM, first compound 0.316 µM
[11] = second compound 10 µM, first compound 0.0316 µM
[12] = second compound 10 µM, first compound 0.316 µM
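Also: spheroids exposed to agents for 7 days before readout.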
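For viability, T/C in this document: percent viability relative to DMSO vehicle control wells taken as 100%.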

**Q.** Which results are given for `Cc1cccc(N(C)C(=O)C2C(O)CCN2c2nc(C)cc(C(F)(F)F)c2C#N)c1` (centres undefined) + Cc1[nH]c2ccc(F)cc2c1-c1nc2c3cccnc3c3ncccc3c2[nH]1?
**A.** IC50 (second compound 0.0316 µM): > 10 µM; IC50 (second compound 0.1 µM): > 10 µM; IC50 (second compound 0.316 µM): > 10 µM; IC50 (second compound 1 µM): > 10 µM; IC50 (second compound 3.16 µM): > 10 µM; IC50 (second compound 10 µM): > 10 µM; viability, T/C [1]: 92.8%; viability, T/C (second compound 0.0316 µM, first compound 0.1 µM): 102%; viability, T/C [2]: 93.7%; viability, T/C (second compound 0.0316 µM, first compound 1 µM): 87.6%; viability, T/C (second compound 0.0316 µM, first compound 3.16 µM): 101%; viability, T/C (second compound 0.0316 µM, first compound 10 µM): 104%; viability, T/C [3]: 99.4%; viability, T/C (second compound 0.1 µM, first compound 0.1 µM): 93.8%; viability, T/C [4]: 99.1%; viability, T/C (second compound 0.1 µM, first compound 1 µM): 104%; viability, T/C (second compound 0.1 µM, first compound 3.16 µM): 99.6%; viability, T/C (second compound 0.1 µM, first compound 10 µM): 95.5%; viability, T/C [5]: 91%; viability, T/C (second compound 0.316 µM, first compound 0.1 µM): 92.1%; viability, T/C [6]: 99.4%; viability, T/C (second compound 0.316 µM, first compound 1 µM): 100%; viability, T/C (second compound 0.316 µM, first compound 3.16 µM): 97.6%; viability, T/C (second compound 0.316 µM, first compound 10 µM): 96.6%; viability, T/C [7]: 103%; viability, T/C (second compound 1 µM, first compound 0.1 µM): 92%; viability, T/C [8]: 96.7%; viability, T/C (second compound 1 µM, first compound 1 µM): 93.9%; viability, T/C (second compound 1 µM, first compound 3.16 µM): 105%; viability, T/C (second compound 1 µM, first compound 10 µM): 103%; viability, T/C [9]: 94.4%; viability, T/C (second compound 3.16 µM, first compound 0.1 µM): 87%; viability, T/C [10]: 96.5%; viability, T/C (second compound 3.16 µM, first compound 1 µM): 91.6%; viability, T/C (second compound 3.16 µM, first compound 3.16 µM): 104%; viability, T/C (second compound 3.16 µM, first compound 10 µM): 107%; viability, T/C [11]: 108%; viability, T/C (second compound 10 µM, first compound 0.1 µM): 94.4%; viability, T/C [12]: 96.2%; viability, T/C (second compound 10 µM, first compound 1 µM): 88%; viability, T/C (second compound 10 µM, first compound 3.16 µM): 107%; viability, T/C (second compound 10 µM, first compound 10 µM): 86.5%

**Q.** What does the source list for `Cn1ncnc1[C@H]1c2n[nH]c(=O)c3cc(F)cc(c23)N[C@@H]1c1ccc(F)cc1` + Cc1[nH]c2ccc(F)cc2c1-c1nc2c3cccnc3c3ncccc3c2[nH]1?
**A.** IC50 (second compound 0.0316 µM): > 0.316 µM; IC50 (second compound 0.1 µM): > 0.316 µM; IC50 (second compound 0.316 µM): > 0.316 µM; IC50 (second compound 1 µM): > 0.316 µM; IC50 (second compound 3.16 µM): > 0.316 µM; IC50 (second compound 10 µM): > 0.316 µM; viability, T/C (second compound 0.0316 µM, first compound 0.000999 µM): 104%; viability, T/C (second compound 0.0316 µM, first compound 0.00316 µM): 98.2%; viability, T/C (second compound 0.0316 µM, first compound 0.00999 µM): 97%; viability, T/C [1]: 92.5%; viability, T/C (second compound 0.0316 µM, first compound 0.0999 µM): 97.1%; viability, T/C [2]: 94.7%; viability, T/C (second compound 0.1 µM, first compound 0.000999 µM): 106%; viability, T/C (second compound 0.1 µM, first compound 0.00316 µM): 89.1%; viability, T/C (second compound 0.1 µM, first compound 0.00999 µM): 94.2%; viability, T/C [3]: 102%; viability, T/C (second compound 0.1 µM, first compound 0.0999 µM): 105%; viability, T/C [4]: 87.4%; viability, T/C (second compound 0.316 µM, first compound 0.000999 µM): 92.7%; viability, T/C (second compound 0.316 µM, first compound 0.00316 µM): 103%; viability, T/C (second compound 0.316 µM, first compound 0.00999 µM): 92.9%; viability, T/C [5]: 103%; viability, T/C (second compound 0.316 µM, first compound 0.0999 µM): 83.3%; viability, T/C [6]: 95.3%; viability, T/C (second compound 1 µM, first compound 0.000999 µM): 100%; viability, T/C (second compound 1 µM, first compound 0.00316 µM): 95.7%; viability, T/C (second compound 1 µM, first compound 0.00999 µM): 91.2%; viability, T/C [7]: 104%; viability, T/C (second compound 1 µM, first compound 0.0999 µM): 96%; viability, T/C [8]: 95.6%; viability, T/C (second compound 3.16 µM, first compound 0.000999 µM): 101%; viability, T/C (second compound 3.16 µM, first compound 0.00316 µM): 97.3%; viability, T/C (second compound 3.16 µM, first compound 0.00999 µM): 85.6%; viability, T/C [9]: 93.2%; viability, T/C (second compound 3.16 µM, first compound 0.0999 µM): 106%; viability, T/C [10]: 87.3%; viability, T/C (second compound 10 µM, first compound 0.000999 µM): 93.3%; viability, T/C (second compound 10 µM, first compound 0.00316 µM): 95.4%; viability, T/C (second compound 10 µM, first compound 0.00999 µM): 88%; viability, T/C [11]: 78.5%; viability, T/C (second compound 10 µM, first compound 0.0999 µM): 116%; viability, T/C [12]: 78.6%

— PubChem BioAssay AID2060493 (Molecular Pharmacology Branch, DTP, NCI, 2025)
